Assay type in all cases: functional, cell-based
The subject of assay [1] is HeLa. The assay can be described thus: Cytotoxicity against human HeLa cells at 100 uM after 48 hrs by MTT assay. In general terms: Tetrazolium assays rely on reduction of a dye to a coloured formazan, in cell work by metabolically active cells.
Assay [2] concerns 786-0. The assay can be described thus: Cytotoxicity against human 7860 cells after 48 hrs by MTT assay.
Assay [3] concerns HeLa. The assay can be described thus: Cytotoxicity against human HeLa cells at 125 uM after 48 hrs by MTT assay.

A word on the IC50: it is the midpoint of a concentration-inhibition curve. For the molecule `CCCCCCCCCCCCCCCCCCO[PH](=O)OC[C@H]1O[C@@H](n2cc(C)c(=O)[nH]c2=O)C[C@@H]1N=[N+]=[N-]` (stereo not given in full), the concentration for half-maximal inhibition (IC50) in assay [1] was over 100 µM; in assay [2] (Homo sapiens, 786-0, 48 h) it was 86 µM.
In the case of `Cc1cn([C@H]2C[C@H](N=[N+]=[N-])[C@@H](COP(=O)(NCCNCCNC(=O)CCC(C)[C@H]3CC[C@H]4[C@@H]5[C@H](O)C[C@@H]6C[C@H](O)CC[C@]6(C)[C@H]5C[C@H](O)[C@]34C)OC[C@H]3O[C@@H](n4cc(C)c(=O)[nH]c4=O)C[C@@H]3N=[N+]=[N-])O2)c(=O)[nH]c1=O` (stereo not given in full), the IC50 in assay [1] was over 100 µM; in assay [2] (Homo sapiens, 786-0, 48 h) it was over 100 µM.
As for `CCCCCCCCCCCCCCCCCCOP(=O)(NCCNCCNC(=O)CCC(C)[C@H]1CC[C@H]2[C@@H]3CC[C@@H]4C[C@H](O)CC[C@]4(C)[C@H]3C[C@H](O)[C@]12C)OC[C@H]1O[C@@H](n2cc(C)c(=O)[nH]c2=O)C[C@@H]1N=[N+]=[N-]` (stereo not given in full), the IC50 in assay [1] is over 100 µM; in assay [2] (Homo sapiens, 786-0, 48 h), 58 µM.
As for `Cc1cn([C@H]2C[C@H](N=[N+]=[N-])[C@@H](COP(=O)(NCCNCCNC(=O)CCC(C)[C@H]3CC[C@H]4[C@@H]5C(=O)C[C@@H]6CC(=O)CC[C@]6(C)[C@H]5CC(=O)[C@]34C)OC[C@H]3O[C@@H](n4cc(C)c(=O)[nH]c4=O)C[C@@H]3N=[N+]=[N-])O2)c(=O)[nH]c1=O` (stereo not given in full), the IC50 in assay [1] is over 100 µM; in assay [2] (Homo sapiens, 786-0, 48 h), over 100 µM.
With `Cc1cn([C@H]2C[C@H](N=[N+]=[N-])[C@@H](COP(=O)(NCCCNCCCNC(=O)CCC(C)[C@H]3CC[C@H]4[C@@H]5CC[C@@H]6C[C@H](O)CC[C@]6(C)[C@H]5C[C@H](O)[C@]34C)OC[C@H]3O[C@@H](n4cc(C)c(=O)[nH]c4=O)C[C@@H]3N=[N+]=[N-])O2)c(=O)[nH]c1=O` (stereo not given in full), the IC50 in assay [1] was over 100 µM; in assay [2] (Homo sapiens, 786-0, 48 h), over 100 µM.
`CCCCCCCCCCCCCCCCCCOP(=O)(NCCCNCCCNC(=O)CCC(C)[C@H]1CC[C@H]2[C@@H]3[C@H](O)C[C@@H]4C[C@H](O)CC[C@]4(C)[C@H]3C[C@H](O)[C@]12C)OC[C@H]1O[C@@H](n2cc(C)c(=O)[nH]c2=O)C[C@@H]1N=[N+]=[N-]` (stereo not given in full): the IC50 in assay [1] is 94 µM; in assay [2] (Homo sapiens, 786-0, 48 h), 7.2 µM.
Take `CCCCCCCCCCCCCCCCCCOP(=O)(NCCCNCCCNC(=O)CCC(C)[C@H]1CC[C@H]2[C@@H]3C(=O)C[C@@H]4CC(=O)CC[C@]4(C)[C@H]3CC(=O)[C@]12C)OC[C@H]1O[C@@H](n2cc(C)c(=O)[nH]c2=O)C[C@@H]1N=[N+]=[N-]` (stereo not given in full): the IC50 in assay [1] is 91 µM; in assay [2] (Homo sapiens, 786-0, 48 h), 7.1 µM.
As for `CCCCCCCCCCCCCCCCCCOP(=O)(NCCNCCNC(=O)CCC(C)[C@H]1CC[C@H]2[C@@H]3C(=O)C[C@@H]4CC(=O)CC[C@]4(C)[C@H]3CC(=O)[C@]12C)OC[C@H]1O[C@@H](n2cc(C)c(=O)[nH]c2=O)C[C@@H]1N=[N+]=[N-]` (stereo not given in full), the IC50 in assay [1] is over 100 µM; in assay [2] (Homo sapiens, 786-0, 48 h), 42 µM.
For `Cc1cn([C@H]2C[C@H](N=[N+]=[N-])[C@@H](COP(=O)(NCCCNCCCNC(=O)CCC(C)[C@H]3CC[C@H]4[C@@H]5C(=O)C[C@@H]6CC(=O)CC[C@]6(C)[C@H]5CC(=O)[C@]34C)OC[C@H]3O[C@@H](n4cc(C)c(=O)[nH]c4=O)C[C@@H]3N=[N+]=[N-])O2)c(=O)[nH]c1=O` (stereo not given in full) the same measures were over 100 µM and over 100 µM.
As to `Cc1cn([C@H]2C[C@H](N=[N+]=[N-])[C@@H](COP(=O)(NCCNCCNC(=O)CCC(C)[C@H]3CC[C@H]4[C@@H]5CC[C@@H]6C[C@H](O)CC[C@]6(C)[C@H]5C[C@H](O)[C@]34C)OC[C@H]3O[C@@H](n4cc(C)c(=O)[nH]c4=O)C[C@@H]3N=[N+]=[N-])O2)c(=O)[nH]c1=O` (stereo not given in full), the concentration for half-maximal inhibition (IC50) in assay [1] was over 100 µM; in assay [2] (Homo sapiens, 786-0, 48 h), over 100 µM.
As for `CCCCCCCCCCCCCCCCCCOP(=O)(NCCCNCCCNC(=O)CCC(C)[C@H]1CC[C@H]2[C@@H]3CC[C@@H]4C[C@H](O)CC[C@]4(C)[C@H]3C[C@H](O)[C@]12C)OC[C@H]1O[C@@H](n2cc(C)c(=O)[nH]c2=O)C[C@@H]1N=[N+]=[N-]` (stereo not given in full), the IC50 in assay [1] is 89 µM; in assay [2] (Homo sapiens, 786-0, 48 h), 6.8 µM.
For the molecule `CCCCCCCCCCCCCCCCCCOP(=O)(NCCNCCNC(=O)CCC(C)[C@H]1CC[C@H]2[C@@H]3[C@H](O)C[C@@H]4C[C@H](O)CC[C@]4(C)[C@H]3C[C@H](O)[C@]12C)OC[C@H]1O[C@@H](n2cc(C)c(=O)[nH]c2=O)C[C@@H]1N=[N+]=[N-]` (stereo in doubt; 2a), the IC50 in assay [2] (786-0) was 59 µM.
On to `Cc1cn([C@H]2C[C@H](N=[N+]=[N-])[C@@H](CO)O2)c(=O)[nH]c1=O` [ZIDOVUDINE], for which the IC50 in assay [1] and in assay [3] was over 100 µM each time.

These data come from ChEMBL document CHEMBL1147963, “Design, synthesis, and antitumor activity of bile acid-polyamine-nucleoside conjugates” (Bioorg Med Chem Lett, 2007).
